Data on 4 compounds can be found in US20080027063A1, “IMIDAZOPYRAZINES AS PROTEIN KINASE INHIBITORS” (Schering Corporation, priority 2006, published 2008).

SMILES strings stand for the structures.

For this test, the system named is CHK1. Put plainly: CHK1 SPA Assay. The conditions noted are these: recombinant His-CHK1, CDC25C biotinylated peptide, 1 μM ATP, 2 hours, room temperature. Type of test: biochemical. As for the experimental part:
CHK1 SPA Assay An in vitro assay was developed that utilizes recombinant His-CHK1 expressed in the baculovirus expression system as an enzyme source and a biotinylated peptide based on CDC25C as substrate (biotin-[…]). Materials and Reagents: 1) CDC25C […]-term Biotinylated peptide substrate (25 mg), stored at -20° C., Custom Synthesis by Research Genetics: biotin-[…] 2) His-CHK1 In House lot P976, 235 μg/mL, stored at -80° C. 3) D-PBS (without CaCl and MgCl): GIBCO, Cat.# 14190-144 4) SPA beads: Amersham, Cat.# SPQ0032: 500 mg/vial • Add 10 mls of D-PBS to 500 mg of SPA beads to make a working concentration of 50 mg/ml. Store at 4° C. Use within 2 week after hydration. 5) 96-Well White Microplate with Bonded GF/B filter: Packard, Cat.# 6005177 6) Top seal-A 96 well Adhesive Film: Perkin Elmer, Cat.# 6005185 7) 96-well Non-Binding White Polystyrene Plate: Corning, Cat. # 6005177 8) MgCl2: Sigma, Cat.# M-8266 9) DTT: Promega, Cat.# V3155 10) ATP, stored at 4° C.: Sigma, Cat.# A-5394 11) γ^33P-ATP, 1000-3000 Ci/mMol: Amersham, Cat.# AH9968 12) NaCl: Fisher Scientific, Cat.# BP358-212 13) H3PO4 85% Fisher, Cat.#A242-500 14) Tris-HCL pH 8.0: Bio-Whittaker, Cat. # 16-[…] 15) Staurosporine, 100 ug: CALBIOCHEM. Cat. # 569397 16) Hypure Cell Culture Grade Water, 500 mL: HyClone, Cat.# SH30529.02 Reaction Mixtures: 1) Kinase Buffer: 50 mM Tris pH 8.0; 10 mM MgCl2; 1 mM DTT 2) His-CHK1, In House Lot P976, MW 30 KDa, stored at -80° C. 6 nM is required to yield positive controls of 5,000 CPM. For 1 plate (100 rxn): dilute 8 μL of 235 ug/mL (7.83 uM) stock in 2 mL Kinase Buffer. This makes a 31 nM mixture. Add 20 μL/well. This makes a final reaction concentration of 6 nM. 3) CDC25C Biotinylated peptide. Dilute CDC25C to 1 mg/mL (385 uM) stock and store at -20° C. For 1 plate (100 rxn): dilute 10 μL of 1 mg/mL peptide stock in 2 ml Kinase Buffer. This gives a 1.925 uM mix. Add 20 μL/rxn. This makes a final reaction concentration of 385 nM 4) ATP Mix. For 1 plate (100 rxn): dilute 10 μL of 1 mM ATP (cold) stock and 2 μL fresh P33-ATP (20 μCi) in 5 ml Kinase Buffer. This gives a 2 uM ATP (cold) solution; add 50 μl/well to start the reaction. Final volume is 100 μl/rxn so the final reaction concentrations will be 1 uM ATP (cold) and 0.2 μCi/reaction. 5) Stop Solution: For 1 plate add: To 10 mL Wash Buffer 2 (2M NaCl 1% H3PO4): 1 mL SPA bead slurry (50 mg); Add 100 μL/well 6) Wash buffer 1: 2 M NaCl 7) Wash buffer 2: 2 M NaCl, 1% H3PO4 Assay Procedure: [table] 1) Dilute compounds to desired concentrations in water/10% DMSO-this will give a final DMSO concentration of 1% in the reaction. Dispense 10 μl/rxn to appropriate wells. Add 10 μL 10% DMSO to positive (CHK1+CDC25C+ATP) and negative (CHK1+ATP only) control wells. […]
One may read the IC50 as the midpoint of a concentration-inhibition curve. For `Nc1ncc(-c2cc(-c3ccccc3)cs2)n2cc([C@H]3CCCNC3)nc12`, the IC50 came to 139 nM. For the compound `Nc1ncc(-c2cc(-c3ccc(Cl)cc3)cs2)n2cc([C@H]3CCCNC3)nc12`, the IC50 came out at 84 nM. To `Nc1ncc(-c2cc3ccccc3s2)n2cc(C3CCCNC3)nc12` (stereo not shown) belongs 187 nM; to `Cc1ccc(-c2cnc(N)c3nc(C4CCCNC4)cn23)s1` (stereo not shown), 216 nM.
